According to patent publication US20060046966A1, “Antipicornaviral compounds and compositions, their pharmaceutical uses, and materials for their synthesis” (Agouron Pharmaceuticals, Inc., priority 1998, published 2006):
Where two headings read alike, the source gives them in different places.

Experiments:
[1] = system: HRV (16); assay: Antirhinoviral H1-HeLa cell culture assay, HRV serotype 16; type: cell-based; conditions: Human rhinovirus sp., H1-HeLa cells, XTT
Procedure: (§1) In this cell protection assay, the ability of compounds to protect cells against HRV infection was measured by the XTT dye reduction method, which is described in Weislow et al., J. Natl. Cancer Inst. 1989, vol. 81, 577-586.
(§2) H1-HeLa cells were infected with HRV-14 at a multiplicity of infection (m.o.i.) of 0.13 (virus particles/cell) or mock-infected with medium only. Infected or mock-infected cells were resuspended at 8×10^5 cells per mL, and incubated with appropriate concentrations of the compounds to be tested. Two days later, XTT/PMS was added to test plates and the amount of formazan produced was quantified spectrophotometrically at 450/650 nm. The EC50 value was calculated as the concentration of compound that increased the percentage of formazan production in compound-treated, virus-infected cells to 50% of that produced by compound-free, mock-infected cells. The 50% cytotoxic dose (CC50) was calculated as the concentration of compound that decreased the percentage of formazan produced in compound-treated, mock-infected cells to 50% of that produced by compound-free, mock-infected cells. The therapeutic index (TI) was calculated by dividing the CC50 value by the EC50 value.
(§3) All strains of human rhinovirus (HRV) for use in this assay were purchased from American Type Culture Collection (ATCC), except for HRV serotype-14 (produced from the infectious cDNA clone constructed by Dr. Robert Rueckert, Institute for Molecular Virology, University of Wisconsin, Madison, Wis.). HRV stocks were propagated and viral assays were performed in H1-HeLa cells (ATCC). Cells were grown in minimal essential medium with 10% fetal bovine serum, available from Life Technologies (Gaithersburg, Md.).
The compounds were tested against control compounds WIN 51711, WIN 52084, and WIN 54954 (obtained from Sterling-Winthrop Pharmaceuticals), Pirodavir (obtained from Janssen Pharmaceuticals), and Pleconaril (prepared according to the method described in Diana et al., J. Med. Chem 1995, vol. 38, 1355). […]

[2] = biological target: T1, rhinovirus 3C protease, serotype 16 (Human rhinovirus 16, UniProt Q82122); assay: Inhibition of rhinovirus 3C protease (FRET assay), serotype 16; type: biochemical; conditions: Rhinovirus Serotype (16) 3C protease; read-out: kobs/I
T1 construct: Recombinant rhinovirus 3C proteases; made in house
Procedure: Stock solutions (50 mM, in DMSO) of various compounds were prepared; dilutions were in the same solvent. Recombinant rhinovirus 3C proteases (see Birch et al., “Purification of recombinant human rhinovirus 14 3C protease expressed in Escherichia coli,” Protein Expr. Pur. 1995, 6(5), 609-618) from serotypes 14, 16, and 2 were prepared by the following standard chromatographic procedures: (1) ion exchange using Q Sepharose Fast Flow from Pharmacia; (2) affinity chromatography using Affi-Gel Blue from Biorad; and (3) sizing using Sephadex G-100 from Pharmacia. Each assay sample contained 2% DMSO, 50 mM tris pH 7.6, 1 mM EDTA, a test compound at the indicated concentration, approximately 1 μM substrate, and 50-100 nM protease. The kobs/I values were obtained from reactions initiated by addition of enzyme rather than substrate. RVP activity was measured in the fluorescence resonance energy transfer assay. The substrate was (N-terminal) DABCYL-(Gly-Arg-Ala-Val-Phe-Gln-Gly-Pro-Val-Gly)-EDANS. In the uncleaved peptide, the EDANS fluorescence was quenched by the proximal DABCYL moiety. When the peptide was cleaved, the quenching was relieved, and activity was measured as an increase in fluorescence signal. […] The data in the column designated kobs/[I] were measured from progress curves in enzyme start experiments.

[3] = biological target: T2, rhinovirus 3C protease from HRV serotype-14 (Human rhinovirus 14, UniProt P03303); assay: Inhibition of rhinovirus 3C protease (FRET assay), serotype 14; type: biochemical; conditions: HRV serotype-14 3C protease; progress curves in enzyme start experiments; read-out: Protease Inhibition kobs/[I]
T2 construct: Recombinant rhinovirus 3C proteases; made in house
Procedure: (§4) Stock solutions (50 mM, in DMSO) of various compounds were prepared; dilutions were in the same solvent. Recombinant rhinovirus 3C proteases (see Birch et al., “Purification of recombinant human rhinovirus 14 3C protease expressed in Escherichia coli,” Protein Expr. Pur. 1995, 6(5), 609-618) from serotypes 14, 16, and 2 were prepared by the following standard chromatographic procedures: (1) ion exchange using Q Sepharose Fast Flow from Pharmacia; (2) affinity chromatography using Affi-Gel Blue from Biorad; and (3) sizing using Sephadex G-100 from Pharmacia. Each assay sample contained 2% DMSO, 50 mM tris pH 7.6, 1 mM EDTA, a test compound at the indicated concentration, approximately 1 μM substrate, and 50-100 nM protease. The kobs/I values were obtained from reactions initiated by addition of enzyme rather than substrate. RVP activity was measured in the fluorescence resonance energy transfer assay. The substrate was (N-terminal) DABCYL-(Gly-Arg-Ala-Val-Phe-Gln-Gly-Pro-Val-Gly)-EDANS. In the uncleaved peptide, the EDANS fluorescence was quenched by the proximal DABCYL moiety. When the peptide was cleaved, the quenching was relieved, and activity was measured as an increase in fluorescence signal. In Table 1, all data are for rhinovirus 3C protease from HRV serotype-14 (produced from the infectious cDNA clone constructed by Dr. Robert Rueckert, Institute for Molecular Virology, University of Wisconsin, Madison, Wis.). […] The data in the column designated kobs/[I] were measured from progress curves in enzyme start experiments.

[4] = system: HRV (89); assay: Antirhinoviral H1-HeLa cell culture assay, HRV serotype 89; type: cell-based, human rhinovirus; conditions: Human rhinovirus sp., H1-HeLa cells, XTT
Procedure: as §1, §2, §3
(§5) The compounds were tested against control compounds WIN 51711, WIN 52084, and WIN 54954 (obtained from Sterling-Winthrop Pharmaceuticals), Pirodavir (obtained from Janssen Pharmaceuticals), and Pleconaril (prepared according to the method described in Diana et al., J. Med. Chem 1995, vol. 38, 1355). Antiviral data obtained for the test compounds are shown in Tables 1 and 3, where all data are for HRV serotype-14 unless otherwise noted in parentheses.

[5] = biological target: T3, rhinovirus 3C protease, serotype 2 (Human rhinovirus 2, UniProt P04936); assay: Inhibition of rhinovirus 3C protease (FRET assay), serotype 2; type: biochemical; conditions: Rhinovirus Serotype (2) 3C protease; read-out: kobs/I
T3 construct: Recombinant rhinovirus 3C proteases; made in house
Procedure: as §4

[6] = biological target: T4, rhinovirus 3C protease, serotype 89 (Human rhinovirus A serotype 89, UniProt P07210); assay: Inhibition of rhinovirus 3C protease (FRET assay), serotype 89; type: biochemical; conditions: Rhinovirus Serotype (89) 3C protease; read-out: kobs/I
T4 construct: Recombinant rhinovirus 3C proteases

[7] = system: HRV-14; assay: Antirhinoviral H1-HeLa cell culture assay, HRV-14; type: cell-based, human rhinovirus; conditions: Rhinovirus B, HRV14, H1-HeLa, HRV serotype-14, H1-HeLa cells
Procedure: as §1, §2, §3, §5

[8] = system: HRV (10); assay: Antirhinoviral H1-HeLa cell culture assay, HRV serotype 10; type: cell-based, human rhinovirus; conditions: Human rhinovirus sp., H1-HeLa, H1-HeLa cells, XTT
Procedure: as §1, §2, §3, §5

[9] = Table 1, XTT dye reduction, read-out: Cell Protection EC50

T2 sequence (P03303 1538-1719): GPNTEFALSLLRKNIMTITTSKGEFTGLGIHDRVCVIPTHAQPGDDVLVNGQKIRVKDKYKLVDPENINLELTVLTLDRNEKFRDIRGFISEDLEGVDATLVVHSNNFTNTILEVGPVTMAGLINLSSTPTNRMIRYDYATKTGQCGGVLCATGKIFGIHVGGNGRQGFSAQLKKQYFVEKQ
T1 sequence (Q82122 1511-1693): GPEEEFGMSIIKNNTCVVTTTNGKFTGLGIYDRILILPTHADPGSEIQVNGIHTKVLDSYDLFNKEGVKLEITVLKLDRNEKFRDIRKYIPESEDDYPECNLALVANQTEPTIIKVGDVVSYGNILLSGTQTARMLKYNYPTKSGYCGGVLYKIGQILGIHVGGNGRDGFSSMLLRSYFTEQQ
T3 sequence (P04936 1508-1690): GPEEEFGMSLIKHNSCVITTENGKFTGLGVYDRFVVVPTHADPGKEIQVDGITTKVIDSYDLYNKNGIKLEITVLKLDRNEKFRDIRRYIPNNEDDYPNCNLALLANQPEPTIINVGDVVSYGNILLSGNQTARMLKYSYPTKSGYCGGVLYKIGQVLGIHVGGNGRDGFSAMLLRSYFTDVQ
T4 sequence (P07210 1522-1704): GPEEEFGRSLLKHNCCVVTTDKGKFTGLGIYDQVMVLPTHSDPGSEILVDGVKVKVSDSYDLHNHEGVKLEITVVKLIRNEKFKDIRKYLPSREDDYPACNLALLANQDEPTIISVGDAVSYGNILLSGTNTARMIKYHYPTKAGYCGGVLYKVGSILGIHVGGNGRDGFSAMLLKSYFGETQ

Work on `CCOC(=O)/C=C/[C@H](CCC(N)=O)NC(=O)[C@H](Cc1ccccc1)NC(=O)[C@H](CC(C)C)NC(=O)OCc1ccccc1` [Comparison Compound #2, Ethyl-3-(Cbz-L-Leu-L-Phe-L-Gln)-E-Propenoate, reference compound] yielded an EC50 [1] of 2300 nM, a kinact/KI [2] of 6500 M⁻¹ s⁻¹ and a kinact/KI [3] of 25000 M⁻¹ s⁻¹. It also gave an EC50 [4] of 6300 nM, a kinact/KI [5] of 2000 M⁻¹ s⁻¹ and a kinact/KI [6] of 3400 M⁻¹ s⁻¹. For the same molecule, the EC50 [7, 9] was 610 nM, the EC50 ([7]; Table 3, XTT, read-out: EC50) was 610 nM and the EC50 [8] was 600 nM.

In the case of `CCOC(=O)/C=C/[C@H](CCC(N)=O)NC(=O)[C@H](Cc1ccccc1)NC(=O)[C@@H](NC(=O)OCc1ccccc1)C(C)C` [Comparison Compound #3, Ethyl-3-(Cbz-L-Val-L-Phe-L-Gln)-E-Propenoate], the kinact/KI [2] is reported as 16900 M⁻¹ s⁻¹, the melting point is reported as 240 °C (dec.) and the kinact/KI [3] is reported as 62500 M⁻¹ s⁻¹. The kinact/KI [5] was 8000 M⁻¹ s⁻¹, the EC50 [7, 9] was 380 nM and the EC50 ([7]; Table 3, XTT, read-out: EC50) was 380 nM.

Work on `CCOC(=O)/C=C/[C@H](CCC(N)=O)NC(=O)[C@H](Cc1ccccc1)NC(=O)[C@H](CC(C)C)NC(=O)c1ccno1` [Compound A-2, Ethyl-3-((Isoxazole-5′-carbonyl)-L-Leu-L-Phe-L-Gln)-E-Propenoate] yielded a melting point of 217 to 220 °C, a kinact/KI [3] of 46900 M⁻¹ s⁻¹ and an EC50 [7, 9] of 1600 nM. For the same molecule, the EC50 ([7]; Table 3, XTT, read-out: EC50) was 1600 nM.
